Data: ChEMBL document CHEMBL1201862, “PubChem BioAssay data set” (2004)
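In this assay, cells in 96-well plates receive the compound at five concentrations for 48 hours. Endpoints are linearly interpolated between the surrounding concentrations. The concentration for 50% growth inhibition is given as GI50.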 Active and inactive are the calls of the source. No stated cut-off is given here; in the data, active = GI50 up to about 1.1 µM and inactive = higher.

How the values were obtained:
Test in all cases: DTP human tumour cell line panel, 48 h
HCT-116 = test system: HCT-116
SF-295 = test system: SF-295
TK-10 = test system: TK-10
PC-3 = test system: PC-3
MDA-MB-435 = test system: MDA-MB-435
Malme-3M = test system: Malme-3M
CAKI-1 = test system: CAKI-1
SNB-19 = test system: SNB-19
LOX IMVI = test system: LOX IMVI
IGROV-1 = test system: IGROV-1
MCF7 = test system: MCF7
RPMI-8226 = test system: RPMI-8226
786-0 = test system: 786-0
A498 = test system: A498
T47D = test system: T47D
K562 = test system: K562
SNB-75 = test system: SNB-75
HOP-92 = test system: HOP-92
SK-OV-3 = test system: SK-OV-3
SK-MEL-2 = test system: SK-MEL-2
NCI-H460 = test system: NCI-H460
NCI-H522 = test system: NCI-H522
SF-268 = test system: SF-268
NCI/ADR-RES = test system: NCI/ADR-RES
HOP-62 = test system: HOP-62
COLO 205 = test system: COLO 205
UO-31 = test system: UO-31
SK-MEL-5 = test system: SK-MEL-5
RXF 393 = test system: RXF 393
U-251 = test system: U-251
MDA-N = test system: MDA-N
KM12 = test system: KM12
UACC-62 = test system: UACC-62
CCRF-CEM = test system: CCRF-CEM
UACC-257 = test system: UACC-257
MOLT-4 = test system: MOLT-4
MDA-MB-231 = test system: MDA-MB-231
SW-620 = test system: SW-620
EKVX = test system: EKVX
SF-539 = test system: SF-539
NCI-H23 = test system: NCI-H23
A549 = test system: A549
SR = test system: SR
SN12C = test system: SN12C
HT-29 = test system: HT-29
DU-145 = test system: DU-145
OVCAR-5 = test system: OVCAR-5
NCI-H226 = test system: NCI-H226
HL-60 = test system: HL-60
Hs-578T = test system: Hs-578T
OVCAR-4 = test system: OVCAR-4
M14 = test system: M14
OVCAR-3 = test system: OVCAR-3

Measured: GI50

CC1=C(C)CC2(C=C(C(C)(C)C)C(=O)C(C(C)(C)C)=C2)SC1
inactive: HCT-116 28.4 µM | SF-295 16 µM | TK-10 18.6 µM | PC-3 26.7 µM | MDA-MB-435 19.5 µM | Malme-3M 14.2 µM | CAKI-1 21.5 µM | SNB-19 17.3 µM | LOX IMVI 17.4 µM | IGROV-1 13.9 µM | MCF7 15.6 µM | RPMI-8226 12.8 µM | 786-0 17.9 µM | A498 17.5 µM | T47D 27.9 µM | K562 30.3 µM | SNB-75 16.1 µM | HOP-92 19.2 µM | SK-OV-3 25 µM | SK-MEL-2 12.3 µM | NCI-H460 27 µM | NCI-H522 1.91 µM | SF-268 19.5 µM | NCI/ADR-RES 19.1 µM | HOP-62 19.3 µM | COLO 205 17.6 µM | UO-31 15.7 µM | SK-MEL-5 13.2 µM | RXF 393 18.5 µM | U-251 15.6 µM | MDA-N 27.2 µM | KM12 19.1 µM | UACC-62 29.2 µM | CCRF-CEM 19.8 µM | UACC-257 26.6 µM | MOLT-4 27.4 µM | MDA-MB-231 14.3 µM | SW-620 18.2 µM | EKVX 18.6 µM | SF-539 18.3 µM | NCI-H23 18.5 µM | A549 21.9 µM | SR 26.5 µM | SN12C 17.4 µM | HT-29 19.9 µM | DU-145 39.3 µM | OVCAR-5 20.1 µM | NCI-H226 17 µM | HL-60 18.3 µM | Hs-578T 16.9 µM | OVCAR-4 26.7 µM | M14 24.7 µM | OVCAR-3 17.9 µM
